Structures can show the parent of a compound that is named as a salt.
Molecular target: T1, 5HT2 receptors (Rattus norvegicus, UniProt P14842)
T1 construct: from tissue; host or cells: external jugular vein of male Wistar rats
Assay: Apparent dissociation constants (KB) against serotonin contraction in rat jugular vein
Format: cell-based
Settings: serotonin agonist, antagonist incubated one hour, read-out: 5HT2 -Log Kb ± S.E. (converted)
Method: An initial optimum resting force of 1 and 4 g was applied to the jugular veins and aorta, respectively. […] Exp. Ther., 205, 400 (1978). Alpha receptor antagonist activity was evaluated in the aorta.

T1 sequence (P14842 whole entry): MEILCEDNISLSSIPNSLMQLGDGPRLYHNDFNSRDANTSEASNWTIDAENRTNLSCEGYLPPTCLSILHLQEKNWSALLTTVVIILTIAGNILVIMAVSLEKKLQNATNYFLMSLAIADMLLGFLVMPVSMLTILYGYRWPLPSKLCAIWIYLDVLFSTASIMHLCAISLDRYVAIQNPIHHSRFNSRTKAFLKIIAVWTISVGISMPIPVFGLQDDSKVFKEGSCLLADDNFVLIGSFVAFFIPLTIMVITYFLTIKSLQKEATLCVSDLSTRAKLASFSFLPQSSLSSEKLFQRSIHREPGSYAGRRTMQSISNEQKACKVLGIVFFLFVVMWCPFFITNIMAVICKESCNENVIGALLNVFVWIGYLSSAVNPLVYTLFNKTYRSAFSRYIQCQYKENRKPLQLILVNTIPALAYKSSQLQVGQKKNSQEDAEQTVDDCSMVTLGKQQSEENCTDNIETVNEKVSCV

Going from `CC(OC(=O)[C@@H]1C[C@@H]2c3cccc4c3c(cn4C(C)C)C[C@H]2N(C)C1)C(=O)c1ccccc1` (mixture of isomers) [R^3=CH3 R^4=H R^10=H maleate, (±)-α-Methylphenacyl 1-isopropyl-9,10-dihydrolysergate maleate] to `CC(C)n1cc2c3c(cccc31)[C@H]1C[C@@H](C(=O)OC(C)(C)C(=O)c3ccccc3)CN(C)[C@@H]1C2` [R^3=CH3 R^4=CH3 R^10=H maleate, α,α-Dimethylphenacyl 1-isopropyl-9,10-dihydrolysergate maleate monohydrate], the Kb rises from 4.57 nM to 14.8 nM (3.2-fold).

Going from `CC(OC(=O)[C@@H]1C[C@@H]2c3cccc4c3c(cn4C(C)C)C[C@H]2N(C)C1)C(=O)c1ccc(O)cc1` (stereo partly drawn) [R^3=CH3 R^4=H R^10=p-OH maleate, α-Methyl-p-hydroxyphenacyl 1-isopropyl-9,10-dihydrolysergate maleate] to `CC(C)n1cc2c3c(cccc31)[C@H]1C[C@@H](C(=O)OCC(=O)c3ccc(O)cc3)CN(C)[C@@H]1C2` [R^3=H R^4=H R^10=p-OH maleate.H2 O, p-Hydroxyphenacyl 1-isopropyl-9,10-dihydrolysergate maleate], the Kb falls from 0.347 nM to 0.138 nM (2.5-fold).

Compared with `CC(C)n1cc2c3c(cccc31)[C@H]1C[C@@H](C(=O)OCC(=O)c3ccccc3)CN(C)[C@@H]1C2` [R^3=H R^4=H R^10=H maleate.H2 O, phenacyl 1-isopropyl-9,10-dihydrolysergate maleate monohydrate], `CC(C)n1cc2c3c(cccc31)[C@H]1C[C@@H](C(=O)OCC(=O)c3ccc(Cl)cc3)CN(C)[C@@H]1C2` [R^3=H R^4=H R^10=p-Cl maleate, p-Chlorophenacyl 1-isopropyl-9,10-dihydrolysergate maleate] is 2.3-fold higher in Kb: 15.1 nM for the first, 34.7 nM for the second.

First: COc1ccc(C(=O)COC(=O)[C@@H]2C[C@@H]3c4cccc5c4c(cn5C(C)C)C[C@H]3N(C)C2)cc1 [R^3=H R^4=H R^10=p-OCH3 maleate, p-Methoxyphenacyl 1-isopropyl-9,10-dihydrolysergate maleate]
Second: CC(C)n1cc2c3c(cccc31)[C@H]1C[C@@H](C(=O)OCC(=O)c3ccc(-c4ccccc4)cc3)CN(C)[C@@H]1C2 [R^3=H R^4=H R^10=p-phenyl maleate, 4-Phenylphenacyl 1-isopropyl-9,10-dihydrolysergate maleate]
The Kb of the first is 55-fold lower: 1.29 nM for the first, 70.8 nM for the second.

— patent publication US4704396A, “Phenacyl esters of 1-substituted-6-(substituted and unsubstituted) dihydrolysergic acids useful as 5HT receptor antagonists” (Eli Lilly and Company, priority 1985, dated 1987)
